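All cell lines were grown in 96-well plates and treated with compound for 48 hours. GI50: concentration for 50% inhibition of growth.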 Calls of active or inactive are those of the source. Cut-off read from the data, not from the text of the source: active = GI50 up to about 1.1 µM and inactive = higher. Bounds are passed on as bounds.

Among the test systems are RXF 393; NCI/ADR-RES; A549; SK-OV-3; DU-145; U-251; SN12C; OVCAR-4; OVCAR-5; SF-539; NCI-H460; HCC 2998; UACC-257; SK-MEL-2; IGROV-1; SR; NCI-H522; COLO 205; TK-10; SF-295.
What all share (assay): DTP human tumour cell line panel, 48 h

Regarding `COC(=O)n1c(=O)n(-c2ccccc2)c(=O)n1C(=O)OC`, the GI50 with RXF 393, in the test on NCI/ADR-RES, with A549, in the test with SK-OV-3, with DU-145 and with U-251 was > 100 µM (inactive) in each case. Besides, the GI50 with SN12C, in the test with OVCAR-4, in the test with OVCAR-5, with SF-539, in the test on NCI-H460 and in the test with HCC 2998 was > 100 µM (inactive) in each case. In addition, the GI50 in the test with UACC-257, in the test on SK-MEL-2, in the test with IGROV-1, in the test with SR, with NCI-H522 and in the test on COLO 205 was > 100 µM (inactive) each time. For the same molecule, the GI50 (as a rule, the concentration that inhibits growth by half) in the test on TK-10 is > 100 µM (inactive).

As to `CC(=O)Oc1ccc(/C=C/C(=O)O[C@@H](C(=O)O)[C@@H](OC(=O)/C=C/c2ccc(OC(C)=O)c(OC(C)=O)c2)C(=O)O)cc1OC(C)=O`, the GI50 in the test on RXF 393, in the test on NCI/ADR-RES, in the test with A549, with SK-OV-3, in the test with DU-145 and in the test on U-251 was > 100 µM (inactive) each time. In addition, the GI50 in the test with SN12C, in the test on OVCAR-4, with OVCAR-5, in the test with NCI-H460, in the test on HCC 2998 and in the test with UACC-257 was > 100 µM (inactive) in each case. The GI50 in the test on SK-MEL-2, with SF-295, with IGROV-1, in the test with SR, with NCI-H522 and with COLO 205 was > 100 µM (inactive) in each case. In addition, the GI50 in the test on TK-10 is > 100 µM (inactive).

On to `CCc1c2c([nH]c(=S)c1C#N)CCC2`, for which the GI50 in the test with RXF 393, with NCI/ADR-RES, with A549, with SK-OV-3, in the test with DU-145 and in the test on U-251 was > 100 µM (inactive) each time. Besides, the GI50 in the test with OVCAR-4, with OVCAR-5, in the test on NCI-H460, in the test with HCC 2998, in the test on UACC-257 and in the test with SK-MEL-2 was > 100 µM (inactive) in each case. Further, the GI50 in the test on SF-295 is > 100 µM (inactive); in the test on IGROV-1, > 100 µM (inactive); in the test on SR, 74.5 µM (inactive); in the test on NCI-H522, > 100 µM (inactive); in the test with COLO 205, > 100 µM (inactive); in the test on TK-10, > 100 µM (inactive).

For the molecule `N#CC(C#N)=C/C=C/c1ccccc1[N+](=O)[O-]`, the GI50 was 2.31 µM (inactive) in the test on RXF 393; 2.16 µM (inactive) in the test on NCI/ADR-RES; > 10 µM (inactive) in the test with A549; > 10 µM (inactive) with SK-OV-3; > 10 µM (inactive) in the test on DU-145; > 10 µM (inactive) in the test with U-251. Besides, the GI50 was > 10 µM (inactive) in the test on SN12C; 6 µM (inactive) in the test with OVCAR-4; 6.76 µM (inactive) in the test on SF-539; 9.57 µM (inactive) in the test with NCI-H460; > 10 µM (inactive) in the test on HCC 2998; 2.68 µM (inactive) in the test on UACC-257. Further, the GI50 in the test on SK-MEL-2 was > 10 µM (inactive); in the test with SF-295 it was > 10 µM (inactive); with IGROV-1 it was > 10 µM (inactive); in the test on SR, 3.54 µM (inactive); with NCI-H522, 3.33 µM (inactive); in the test on COLO 205, 3.93 µM (inactive). The GI50 in the test on TK-10 was > 10 µM (inactive).

`CCCCCCCCCCCCCCCCCCOCC(CCP(=O)(CP(=O)(O)O)Oc1ccccc1)OCCCCCCCCCCCCCCCCCC` (configuration not stated): the GI50 with RXF 393, in the test with NCI/ADR-RES, in the test on A549, in the test with SK-OV-3, in the test with DU-145 and with U-251 was > 100 µM (inactive) throughout. The GI50 in the test on SN12C, with OVCAR-4, in the test on OVCAR-5, in the test on SF-539, with NCI-H460 and in the test on HCC 2998 was > 100 µM (inactive) throughout. Further, the GI50 in the test on UACC-257, in the test on SF-295, in the test on IGROV-1, in the test on SR, in the test with NCI-H522 and with COLO 205 was > 100 µM (inactive) throughout. Moreover, the GI50 with TK-10 was > 100 µM (inactive).

As to `Cc1c(-c2ccccc2)nn2cc(-c3ccccc3)nnc12`, the GI50 was 18.2 µM (inactive) in the test on RXF 393; 39.1 µM (inactive) in the test on NCI/ADR-RES; 17.5 µM (inactive) in the test on A549; 39.3 µM (inactive) in the test with SK-OV-3; 30.4 µM (inactive) in the test on DU-145; 19.2 µM (inactive) with U-251. Also, the GI50 in the test with SN12C is 37.9 µM (inactive); in the test with OVCAR-4, 44.5 µM (inactive); in the test on OVCAR-5 it was 30.7 µM (inactive); with NCI-H460 it was 16.9 µM (inactive); in the test on HCC 2998 it was 15.5 µM (inactive); in the test on UACC-257, 23.4 µM (inactive). In addition, the GI50 was 15.1 µM (inactive) with SK-MEL-2; 34.8 µM (inactive) with SF-295; 21.7 µM (inactive) with IGROV-1; 33.5 µM (inactive) in the test with SR; 15.5 µM (inactive) in the test on NCI-H522; 22.2 µM (inactive) in the test with COLO 205. Besides, the GI50 in the test with TK-10 was 42.4 µM (inactive).

Take `Clc1ncnc(Cl)c1Cl`: the GI50 in the test with RXF 393, with NCI/ADR-RES, with A549, in the test on SK-OV-3, in the test on DU-145 and in the test on U-251 was > 100 µM (inactive) in each case. For the same molecule, the GI50 with SN12C, in the test on OVCAR-4, with OVCAR-5, with SF-539, in the test with NCI-H460 and in the test with HCC 2998 was > 100 µM (inactive) each time. The GI50 with SF-295, with IGROV-1, in the test on SR, in the test with NCI-H522, with COLO 205 and with TK-10 was > 100 µM (inactive) in each case.

Regarding `CC(=O)Oc1ccc2oc(=O)cc(C)c2c1`, the GI50 in the test with RXF 393, in the test on NCI/ADR-RES, in the test with A549, with DU-145, in the test with U-251 and in the test with SN12C was > 100 µM (inactive) in each case. Also, the GI50 with OVCAR-4, in the test with SF-539, in the test with NCI-H460, with HCC 2998, in the test with UACC-257 and in the test with SK-MEL-2 was > 100 µM (inactive) throughout. Besides, the GI50 with SF-295, with IGROV-1, in the test on SR, in the test with NCI-H522, in the test with COLO 205 and in the test with TK-10 was > 100 µM (inactive) throughout.

Turning to `C=CCN(c1cc(OC)c(NC(C)=O)cc1[N+](=O)[O-])S(C)(=O)=O`, the GI50 in the test on RXF 393, in the test on NCI/ADR-RES, in the test on A549, in the test with SK-OV-3, in the test on DU-145 and in the test with U-251 was > 100 µM (inactive) each time. Also, the GI50 in the test with SN12C, in the test on OVCAR-4, in the test with OVCAR-5, in the test on NCI-H460, in the test on HCC 2998 and in the test on UACC-257 was > 100 µM (inactive) each time. The GI50 with SK-MEL-2 was > 100 µM (inactive); in the test with SF-295 it was > 100 µM (inactive); with IGROV-1, > 100 µM (inactive); with SR, > 100 µM (inactive); in the test with NCI-H522, 0.0349 µM (active); with COLO 205, > 100 µM (inactive). The GI50 in the test with TK-10 was > 100 µM (inactive).

As for `CC(C)/C(Cl)=N/OC(=O)Nc1cccc(C(F)(F)F)c1`, the GI50 is 5.9 µM (inactive) in the test with RXF 393; 5.5 µM (inactive) in the test with NCI/ADR-RES; 19.3 µM (inactive) in the test on A549; 17.7 µM (inactive) with SK-OV-3; 17.3 µM (inactive) in the test on DU-145; 17 µM (inactive) in the test on U-251. Also, the GI50 in the test on SN12C was 7.1 µM (inactive); in the test on OVCAR-4, 7.05 µM (inactive); with OVCAR-5 it was 18.9 µM (inactive); with NCI-H460 it was 17.8 µM (inactive); with HCC 2998, 15.8 µM (inactive); in the test on UACC-257, 15.4 µM (inactive). Besides, the GI50 with SK-MEL-2 was 17.8 µM (inactive); in the test with SF-295 it was 18.3 µM (inactive); with IGROV-1, 13.4 µM (inactive); in the test with SR, 1.06 µM (active); in the test on NCI-H522 it was 0.14 µM (active); with COLO 205 it was 2.07 µM (inactive). Also, the GI50 in the test with TK-10 is 3.5 µM (inactive).

These data come from ChEMBL document CHEMBL1201862, “PubChem BioAssay data set” (2004).
